Measurements published in patent US20100285959A1, “HERBICIDAL MIXTURES” (priority 2006, published 2010).

Assays:
Russian thistle (SASKR) = experiment: Test 23 growth chamber, postemergence; format: in vivo, Salsola kali; conditions: 21 DAA; 2,4-D or MCPA alone 250 g a.i./ha
Procedure: (§1) A test was conducted to evaluate the effects on winter barley (HORVW, Hordeum vulgare L.), winter wheat (TRZAW, Triticum aestivum L.), and several weed species of mixtures of Compound 2 with the commercial herbicides (2,4-dichlorophenoxy)acetic acid (2,4-D) and (4-chloro-2-methylphenoxy)acetic acid (MCPA), auxin mimics. […] Plants were treated postemergence at the 2-4 leaf growth stage, and each treatment was replicated three times. […] Plants were watered as needed. […] Results are means of the three replicates.

winter barley (HORVW) = experiment: Test 23 growth chamber, postemergence; format: in vivo, Hordeum vulgare; conditions: 21 DAA; 2,4-D or MCPA alone 250 g a.i./ha
Procedure: as §1

field violet (VIOAR) = experiment: Test 23 growth chamber, postemergence; format: in vivo, Viola arvensis; conditions: 21 DAA; 2,4-D or MCPA alone 250 g a.i./ha
Procedure: as §1

giant foxtail (SETFA) = experiment: Test 2 field trial, preemergence; format: in vivo, Setaria faberi; design: scale not given here
Text: (§2) Corn seeds (hybrid ‘Pioneer 31G96’) were planted in mid spring season, 3.8 cm deep in a clay loam soil having 2% organic matter and a pH of 6.6. Plots were 6.1 m long by 3.0 m wide with rows spaced 76 cm apart. Seeds were spaced 15 cm apart within the rows. The field was managed using conventional tillage practices. […] A few of the weed species could not be evaluated at every timing. […] Results are the means of the three replicates.

[1] = system: common lambsquarters (CHEAL); experiment: Test 5 field trial, postemergence; format: in vivo, Chenopodium album; conditions: atrazine 1120, glufosinate 470 or glyphosate 1120 g a.i./ha alone
Text: Corn seeds (hybrid ‘Pioneer 38H69’) were planted in mid spring season, 5.1 cm deep in a silty clay loam soil having 3% organic matter and a pH of 6.5. Plots were 9.1 m long by 3.0 m wide with rows spaced 76 cm apart. The field was managed using conventional tillage practices. […] All treatments included a surfactant except glufosinate treatments, both alone and in combination. […] Results are summarized in Table 5 and are the means of the three replicates.

velvetleaf (ABUTH) = experiment: Test 10 field trial, preemergence; format: in vivo, Abutilon theophrasti; conditions: 28 DAA; g a.i./ha: Cpd 2 100, Atrazine 1680, S-Metolachlor 1870
Text: Corn seeds (hybrid ‘Pioneer 33P65 RR’) were planted in mid spring season, 2.5 cm deep in a silt loam soil. Plots were 9.1 m long by 3.0 m wide with rows spaced 76 cm apart. The field was managed using conventional tillage practices. […] Results are the means of the three replicates.

corn (ZEAMD) = experiment: Test 8 field trial, preemergence; format: in vivo, Zea mays ssp. indentata; conditions: g a.i./ha: Cpd 2 100, Atrazine 1680, S-Metolachlor 1870
Text: as §2

arrowleaf sida (SIDRH) = experiment: Test 11 field trial, preemergence; format: in vivo, Sida rhombifolia
Text: (§3) Corn seeds (hybrid ‘Pioneer 3041’) were planted in mid spring season, 5 cm deep in a clay soil having 2.6% organic matter and a pH of 5.6. Plots were 8 m long by 1.5 m wide with rows spaced 80 cm apart. Seeds were spaced 15 cm apart within the rows. The field was managed using conventional tillage practices. […] Treatments consisted of Compound 2 or
(§4) Goosegrass was not evaluated 16 or 91 days after application.

[2] = system: tropical spiderwort (COMBE); experiment: Test 11 field trial, preemergence; format: in vivo, Commelina benghalensis; design: scale not given here
Text: as §3, §4

[3] = system: common lambsquarters (CHEAL); experiment: Test 6 field trial, postemergence; format: in vivo, Chenopodium album; conditions: 1120 g a.i./ha
Text: Corn seeds (hybrid ‘Pioneer 35Y62’) were planted in mid spring season, 3.8 cm deep in a silt loam soil having 4% organic matter and a pH of 5.8. Plots were 10.7 m long by 1.5 m wide with rows spaced 76 cm apart. Seeds were spaced 18 cm apart within the rows. The field was managed using conventional tillage practices. […] All treatments included a surfactant except glufosinate treatments, both alone and in combination. […] Results are summarized in Table 6 and are the means of the three replicates.

common purslane (POROL) = experiment: Test 12 field trial, preemergence; format: in vivo, Portulaca oleracea; conditions: Cpd 2 or Cpd 1 62 g a.i./ha, Diuron 2000 g a.i./ha
Text: In early-mid spring season, corn seeds (hybrid ‘Pioneer 3041’) were planted 5 cm deep and sugarcane nodes (variety RB-72.454) were planted 10 cm deep in separate plots in a clay soil having 2.6% organic matter and a pH of 5.6. Plots were 24 m long by 1.5 m wide with rows spaced 80 cm (corn) or 140 cm (sugarcane) apart. Corn seeds were spaced 15 cm apart and sugarcane nodes were spaced 10 cm apart within the rows. At the same time, weed seeds were broadcast over the surface of separate plots without a crop, one weed species per plot. The weed plots were rotary tilled to incorporate the weed seeds to a variety of depths. The field was managed using conventional tillage practices.

[4] = 16 DAA, atrazine 1500 or metolachlor 2500 g a.i./ha alone
[5] = 30 DAA, atrazine 1500 or metolachlor 2500 g a.i./ha alone
[6] = 44 DAA, atrazine 1500 or metolachlor 2500 g a.i./ha alone
[7] = 16 DAA, Cpd 2/Cpd 1 at 62 g a.i./ha, alone or + atrazine 1500 or metolachlor 2500
[8] = 16 DAA, Cpd 2/Cpd 1 at 125 g a.i./ha, alone or + atrazine 1500 or metolachlor 2500
[9] = 30 DAA, Cpd 2/Cpd 1 at 62 g a.i./ha, alone or + atrazine 1500 or metolachlor 2500
[10] = 30 DAA, Cpd 2/Cpd 1 at 125 g a.i./ha, alone or + atrazine 1500 or metolachlor 2500

In the case of `O=C(O)COc1ccc(Cl)cc1Cl` [2,4-D, (2,4-dichlorophenoxy)acetic acid], the “Postemergence SASKR Obs” value (Russian thistle (SASKR)) is reported as 63, the “Postemergence HORVW Obs” value (winter barley (HORVW)) is reported as 25 and the “Postemergence VIOAR Obs” value (field violet (VIOAR)) is reported as 63.
`CCNc1nc(Cl)nc(NC(C)C)n1` [Atrazine, atrazine, reference compound] was tested, and the “SETFA Obs” value (giant foxtail (SETFA); 18 DAA, g a.i./ha: Cpd 2 25, Atrazine 250) was 20, the “SETFA Obs” value (giant foxtail (SETFA); 18 DAA, g a.i./ha: Cpd 2 50, Atrazine 500) was 25 and the “SETFA Obs” value (giant foxtail (SETFA); 18 DAA, g a.i./ha: Cpd 2 75, Atrazine 750) was 40. The “SETFA Obs” value (giant foxtail (SETFA); 18 DAA, g a.i./ha: Cpd 2 100, Atrazine 1000) was 43, the “SETFA Obs” value (giant foxtail (SETFA); 18 DAA, g a.i./ha: Cpd 2 150, Atrazine 1500) was 38 and the “SETFA Obs” value (giant foxtail (SETFA); 28 DAA, g a.i./ha: Cpd 2 25, Atrazine 250) was 37. For the same compound, the “SETFA Obs” value (giant foxtail (SETFA); 28 DAA, g a.i./ha: Cpd 2 50, Atrazine 500) was 67, the “SETFA Obs” value (giant foxtail (SETFA); 28 DAA, g a.i./ha: Cpd 2 75, Atrazine 750) was 83 and the “SETFA Obs” value (giant foxtail (SETFA); 28 DAA, g a.i./ha: Cpd 2 100, Atrazine 1000) was 87. For the same compound, the “SETFA Obs” value (giant foxtail (SETFA); 28 DAA, g a.i./ha: Cpd 2 150, Atrazine 1500) was 88, the “SETFA Obs” value (giant foxtail (SETFA); 55 DAA, g a.i./ha: Cpd 2 25, Atrazine 250) was 35 and the “SETFA Obs” value (giant foxtail (SETFA); 55 DAA, g a.i./ha: Cpd 2 50, Atrazine 500) was 60. For the same compound, the “SETFA Obs” value (giant foxtail (SETFA); 55 DAA, g a.i./ha: Cpd 2 75, Atrazine 750) was 58, the “SETFA Obs” value (giant foxtail (SETFA); 55 DAA, g a.i./ha: Cpd 2 100, Atrazine 1000) was 65 and the “SETFA Obs” value (giant foxtail (SETFA); 55 DAA, g a.i./ha: Cpd 2 150, Atrazine 1500) was 80. For the same compound, the “CHEAL Obs” value ([1]; 16 DAA) was 79%, the “CHEAL Obs” value ([1]; 31 DAA) was 70% and the “ABUTH Obs” value (velvetleaf (ABUTH)) was 55%. For the same compound, the “ZEAMD Obs” value (corn (ZEAMD); 19 DAA) was 5%, the “ZEAMD Obs” value (corn (ZEAMD); 29 DAA) was 2% and the “ZEAMD Obs” value (corn (ZEAMD); 56 DAA) was 3%. The “SIDRH Obs” value (arrowleaf sida (SIDRH); [4]) was 97, the “SIDRH Obs” value (arrowleaf sida (SIDRH); [5]) was 100 and the “SIDRH Obs” value (arrowleaf sida (SIDRH); [6]) was 95. The “SIDRH Obs” value (arrowleaf sida (SIDRH); 62 DAA, 1500 g a.i./ha, scale 0 to 100) was 80, the “SIDRH Obs” value (arrowleaf sida (SIDRH); 91 DAA, 1500 g a.i./ha, scale 0 to 100) was 90 and the “COMBE Obs” value [2, 4] was 99. The “COMBE Obs” value [2, 5] was 100, the “COMBE Obs” value [2, 6] was 100 and the “COMBE Obs” value ([2]; 62 DAA, atrazine 1500 or metolachlor 2500 g a.i./ha alone) was 97. For the same compound, the “COMBE Obs” value ([2]; 91 DAA, atrazine 1500 or metolachlor 2500 g a.i./ha alone) was 95, the “CHEAL Obs” value ([3]; 14 DAA) was 100% and the “CHEAL Obs” value ([3]; 28 DAA) was 100%.
In the case of `Nc1nc(C2CC2)nc(C(=O)O)c1Cl` [Compound 1, 6-amino-5-chloro-2-cyclopropyl-4-pyrimidinecarboxylic acid], the “POROL Obs” value (common purslane (POROL); 15 DAA) is reported as 90, the “POROL Obs” value (common purslane (POROL); 29 DAA) is reported as 97 and the “POROL Obs” value (common purslane (POROL); 48 DAA) is reported as 100. For the same compound, the “POROL Obs” value (common purslane (POROL); 61 DAA) was 100, the “SIDRH Obs” value (arrowleaf sida (SIDRH); [7]) was 40 and the “SIDRH Obs” value (arrowleaf sida (SIDRH); [8]) was 75. The “SIDRH Obs” value (arrowleaf sida (SIDRH); [9]) was 60, the “SIDRH Obs” value (arrowleaf sida (SIDRH); [10]) was 65 and the “SIDRH Obs” value (arrowleaf sida (SIDRH); 44 DAA, 62 g a.i./ha, scale 0 to 100) was 75. For the same compound, the “SIDRH Obs” value (arrowleaf sida (SIDRH); 44 DAA, 125 g a.i./ha, scale 0 to 100) was 95, the “SIDRH Obs” value (arrowleaf sida (SIDRH); 62 DAA, 62 g a.i./ha, scale 0 to 100) was 40 and the “SIDRH Obs” value (arrowleaf sida (SIDRH); 62 DAA, 125 g a.i./ha, scale 0 to 100) was 95. For the same compound, the “SIDRH Obs” value (arrowleaf sida (SIDRH); 91 DAA, 62 g a.i./ha, scale 0 to 100) was 0, the “SIDRH Obs” value (arrowleaf sida (SIDRH); 91 DAA, 125 g a.i./ha, scale 0 to 100) was 100 and the “COMBE Obs” value [2, 7] was 40. The “COMBE Obs” value [2, 8] was 60, the “COMBE Obs” value [2, 9] was 60 and the “COMBE Obs” value [2, 10] was 95. For the same compound, the “COMBE Obs” value ([2]; 44 DAA, Cpd 2/Cpd 1 at 62 g a.i./ha, alone or + atrazine 1500 or metolachlor 2500) was 60, the “COMBE Obs” value ([2]; 44 DAA, Cpd 2/Cpd 1 at 125 g a.i./ha, alone or + atrazine 1500 or metolachlor 2500) was 95 and the “COMBE Obs” value ([2]; 62 DAA, Cpd 2/Cpd 1 at 62 g a.i./ha, alone or + atrazine 1500 or metolachlor 2500) was 40. The “COMBE Obs” value ([2]; 62 DAA, Cpd 2/Cpd 1 at 125 g a.i./ha, alone or + atrazine 1500 or metolachlor 2500) was 60, the “COMBE Obs” value ([2]; 91 DAA, Cpd 2/Cpd 1 at 62 g a.i./ha, alone or + atrazine 1500 or metolachlor 2500) was 0 and the “COMBE Obs” value ([2]; 91 DAA, Cpd 2/Cpd 1 at 125 g a.i./ha, alone or + atrazine 1500 or metolachlor 2500) was 70.
With `O=C(O)CNCP(=O)(O)O` [Glyphosate] the “CHEAL Obs” value ([1]; 16 DAA) was 100%, the “CHEAL Obs” value ([1]; 31 DAA) was 97% and the “CHEAL Obs” value ([3]; 14 DAA) was 100%. The “CHEAL Obs” value ([3]; 28 DAA) was 100%.
In the case of `CCc1cccc(C)c1N(C(=O)CCl)[C@@H](C)COC` [S-Metolachlor, S-metolachlor, reference compound], the “ABUTH Obs” value (velvetleaf (ABUTH)) is reported as 37%, the “ZEAMD Obs” value (corn (ZEAMD); 19 DAA) is reported as 0% and the “ZEAMD Obs” value (corn (ZEAMD); 29 DAA) is reported as 3%. For the same compound, the “ZEAMD Obs” value (corn (ZEAMD); 56 DAA) was 5%.
